# Patent US20240299393A1, “SMALL MOLECULE DISRUPTORS OF PROTEIN INTERACTIONS IN HISTONE DEACETYLASE COMPLEXES” (Dana-Farber Cancer Institute, Inc., priority 2021, published 2024)
# Key:
# [1] = tested on: CDKN1A, SOCS3, EGR1 in SK-N-BE(2)-C cells; experiment: RT-qPCR of SIN3 HDAC complex-regulated genes in neuroblastoma cells; assay type: cell-based, human; conditions: 100 μM for 16 h
# Experimental: The RT-qPCR protocol used in this study was described elsewhere [Choi et al 2012]. Culture, RNA extraction, and compound treatments for neuroblastoma SK-N-BE(2)-C cells are described below. Approximately 1 μg RNA per sample was used for reverse transcription. Using a thermocycler, RNA was denatured in the presence of 0.2 μg 18 mer oligo-dT by heating the plate at 65° C. for 10 min. The plate was then immediately cooled down on ice to anneal oligo-dT on the poly-A tail of mRNA. A master mix of AffinityScript Multiple Temperature Reverses Transcriptase (Agilent, cat #600107) was prepared following the manufacturer's protocol, and mixed with RNA samples previously annealed with the oligo-dT. The plate was incubated at 42° C. for 2 h to generate cDNAs from mRNA templates. The reverse transcriptase was then denatured by heating the plate at 70° C. for 15 min. The resulting cDNA was diluted (1:20) in sterile, ultra pure water (ddH2O), and stored at −20° C. until used for qPCR. To measure gene expression, the diluted cDNA was mixed with 5 μL PowerUp SYBR Green master mix (Applied Biosystems, cat #A25743), and the mix of primers (forward+reverse, see FIG. 31; 0.3 μM final concentration) for a total volume of 10 μL. Two technical replicates were generated per cDNA sample in the 384-well PCR plate (Applied Biosystems, cat #4343370). The plate was tightly sealed with optical adhesive film (Applied Biosystems, cat #4311971). Quantitative PCR was conducted with a QuantStudio real-time PCR system from Applied Biosystems, with the following settings: 50° C./2 min, 95° C./10 min, 96° C./15 s/40 cycles, and 60° C./30 s. Dissociation curves were checked for each PCR product, to assess the specificity of the PCR amplicons.
# SK-N-BE(2)-C cells were maintained in cell culture flasks supplemented with 10% Fetal bovine serum (FBS) and penicillin/streptomycin (PS) in Dulbecco's Modified Eagle's Medium (DMEM). The cells were maintained at a log phase in a humidified 5% CO2 incubator at 37° C. For testing the effect of the compounds on gene expression, approximately 0.1 million cells were seeded on each well of 24-well cell culture plates, with 1 mL 10% FBS+PS+DMEM. 24 h after seeding the cells, they were exposed to the compounds or DMSO control for 16 h in a humidified 5% CO2 incubator at 37° C., before harvesting them.
# Cells were harvested for RNA extraction using Nucleospin 96 RNA (Macherey-Nagel, cat #740709.4) following manufacturer's protocol. Briefly, supernatant was removed, and the cells were gently washed with 1× phosphate-buffered saline. 300 μL lysis buffer were added to each well of 24 well cell culture plates. Roughly 0.1 million cells were used for harvesting each RNA sample. RNA concentration was measured for all purified RNA samples using a nanodrop spectrophotometer.
# [2] = target: Sc Sin3 PAH2-Ume6 SID (TAMRA-labeled) interaction (Saccharomyces cerevisiae, UniProt P22579); experiment: biochemical
# Experimental: Symbols represent individual data points (A) or means with SEM, and lines fitted curves.
# IC50 determination for unlabeled Ume6 SID, E6, E6R and E6S: the concentrations of FITC-Ume6 SID (30 nM), and GST-Sin3 PAH2 (3 μM) were fixed and the compounds were titrated with an HP D300 (Hewlett-Packard, CA) to the assay plate.
# [3] = tested on: Rpd3L HDAC binary PPIs other than Sin3-Ume6; experiment: GPCA binary PPI inhibition, other Rpd3L HDAC PPIs; assay type: cell-based, S. cerevisiae; conditions: 10 μM
# Experimental: GPCA (N1-N2 version) was implemented as reported in [Choi et al 2019]. HEK293T cells were seeded at 6×10^4 cells per well in 96-well, flat-bottom, cell culture microplates (Greiner Bio-One, #655083), and cultured in Dulbecco's modified Eagle's medium (DMEM) supplemented with 10% fetal calf serum at 37° C. and 5% CO2. Twenty-four hours later, cells were transfected with 100 ng of each GPCA plasmid (GPCA-N1 and GPCA-N2) using linear polyethylenimine (PEI) to co-express the protein pairs fused with complementary luciferase fragments, Luc1 and Luc2. The DNA/PEI ratio used for transfection was 1:3 (mass:mass). […] Luminescence was measured by auto-injecting 50 μL Renilla luciferase substrate (Renilla Luciferase Assay system, catalog No. E2820, Promega) per well and integrating light output for 4 s using a TriStar luminometer (Berthold).
# The ability of compounds to inhibit binary PPIs in the Sin3/Rpd3L HDAC complex was tested by GPCA in a high-throughput screening format. […] The luminescence signal for each PPI was measured by averaging the different DMSO replicates, and calculating the standard deviation of DMSO values for each interaction. […] For each interaction, a particular compound was scored as a PPI inhibitor when it decreased its luminescence signal by at least three standard deviations compared to the corresponding averaged DMSO value. […]
# Sequence of Sc Sin3 PAH2-Ume6 SID (TAMRA-labeled) interaction (P22579 402-473): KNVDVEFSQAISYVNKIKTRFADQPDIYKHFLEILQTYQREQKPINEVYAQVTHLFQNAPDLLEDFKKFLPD
Compound,"effect on expression of CDKN1A, SOCS3 and EGR1 [1]",IC50 [2] [µM],effect on all other PPIs [3]
"C[C@@H](NC(=O)c1c(O)n2ccccc2nc1=O)c1ccccc1 [E6R, 4-hydroxy-2-oxo-N—((R)-1-phenylethyl)-3,4-dihydro-2H-pyrido[, 2-a]pyrimidine-3-carboxamide]",only perturbed expression of two of the tested downstream genes,63.7,
"CC(/C=C/C(=O)NO)=C\[C@@H](C)C(=O)c1ccc(N(C)C)cc1 [TSA, trichostatin A]",derepressed,,
CC(NC(=O)c1c(O)n2ccccc2nc1=O)c1ccccc1 (racemic) [E6],,,unperturbed
